According to patent US20090076140A1, “PHARMACEUTICAL COMPOSITIONS CONTAINING SULPHONIC ACID DERIVATIVES” (ITALFARMACO, S. A., priority 2003, published 2009):
Entries after “also recorded” stand apart in the source; their conditions may differ. Where two headings read alike, the source gives them in different places.

How the values were obtained:
[1] = tested on: quiescent fibroblasts (Balb/c 3T3); details: Lozano et al. (1998), cited from earlier work
[2] = tested on: quiescent fibroblasts (Balb/c 3T3); assay: toxicity analysis for quiescent fibroblasts (culture in the absence of aFGF); format: cell-based; details: for toxicity for quiescent fibroblasts: within the concentration range tested / in which aFGF mitogenic activity is inhibited
aFGF [3] = target: T1, aFGF (Homo sapiens, UniProt P05230); parameters: the aFGF of 139 amino acid residues; details: Lozano et al. (1998), cited from earlier work
Target sequence in this assay (P05230 16-155 limits assumed): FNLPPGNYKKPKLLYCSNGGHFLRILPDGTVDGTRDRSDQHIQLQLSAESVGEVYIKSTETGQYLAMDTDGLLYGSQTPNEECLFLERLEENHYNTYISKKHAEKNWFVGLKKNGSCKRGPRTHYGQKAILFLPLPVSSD

aFGF [4] = target: T1, aFGF; assay: aFGF-induced mitogenesis inhibition test on fibroblasts in culture; format: cell-based; parameters: the aFGF of 139 amino acid residues; details: for aFGF-induced mitogenic activity inhibition (in words): 60 hours, MIHS 20 μg/mL, aFGF 0.32 ng/mL
Target sequence in this assay (P05230 16-155 limits assumed): as above

aFGF [5] = target: T1, aFGF; details: literature (Pesenti et al.; Cuevas et al.); cited from earlier work
Target sequence in this assay (P05230 whole entry, species assumed): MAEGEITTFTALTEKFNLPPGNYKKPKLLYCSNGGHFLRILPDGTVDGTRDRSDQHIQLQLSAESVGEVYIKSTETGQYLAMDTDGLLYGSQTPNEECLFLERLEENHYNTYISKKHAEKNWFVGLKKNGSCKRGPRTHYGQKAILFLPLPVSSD

aFGF [6] = target: T1, aFGF; details: in vitro and in vivo; cited from earlier work
Target sequence in this assay (P05230 whole entry, species assumed): as above

aFGF [7] = target: T1, aFGF; assay: angiogenesis inhibition test in mice (aFGF-soaked gelatin sponge implants); format: in vivo
Procedure: A standard angiogenesis test was performed with mice in order to evaluate the C-9 compound as an angiogenesis inhibitor.
(§1) Pathogen-free C57/BI/6 mice (Charles River, Spain) weighing 25±4 g were used. The animals were kept in plastic cages under controlled temperature and humidity conditions; they had water and food ad libitum and a schedule of 12 hours of daylight and darkness was maintained. The guidelines on animal welfare of the NIH and the European Union were followed meticulously.
(§2) 10 mm long sterile gelatin sponge cubes (Curaspon Dental, Clinimed Holding, Zwanenburg, Holland) were subcutaneously implanted in the backs of the mice after inducing intraperitoneal anesthesia [Cuevas, P. et al. (1999) Neurol. Res. 21, 191-194]. The animals were distributed into 2 groups: Group A (n=10): formed by animals in which sponges loaded with 200 μL of phosphate buffered saline (PBS) containing 29 μg/mL of heparin were implanted; and Group B (n=40): formed by animals in which sponges soaked with the same solution as that of Group A but containing 10 μg/mL of aFGF were implanted. The skin was sutured after implanting the sponge in the subcutaneous bursa. The mice in Group B were randomly divided into four groups (n=10) that received 0.008, 0.08, 0.8 and 8 mg/kg of compound C-9, respectively, by means of intraperitoneal injection of 200 μL of PBS 24 hours after surgical treatment [Pesenti, E. et al. (1992) Brit. J. Cancer 66, 367-372; Cuevas, P. et al. (1999) Neurol. Res. 21, 191-194]. All the procedures were performed under sterile conditions.
In order to evaluate angiogenesis, the mice were again anesthetized as previously described, and the sponges were surgically extracted, which were treated to perform histological studies by means of conventional methods [Cuevas, P. et al. (1999) Neurol. Res. 21, 191-194] 7 days after the implants. Neovascularization was quantified by means of a morphometric computer program connected to a microscope. The growth of new vessels inside the sponges was evaluated by means of the measurement of the surface area containing erythrocytes. Neovascularization was analyzed in 4 predetermined visual fields of 3 different sections at a magnification of 10. The statistical analyses were performed using Student's t-Test.
Target sequence in this assay (P05230 whole entry, species assumed): as above

glioma C6 cells = assay: angiogenesis and tumor growth inhibition, glioma C6 cells implanted in rabbit cornea; format: in vivo, Albino New Zealand rabbits
Procedure: Albino New Zealand rabbits (3±0.5 kg, male and female in equal numbers) were used and were implanted with 5 μL of a glioma C6 cell suspension [ATCC CCL-107] subepithelially injected into the cornea with a 10 μL Hamilton syringe using a surgical microscope. The injection is located at 2 mm from the limbal margin of the cornea. At the same time, an osmotic minipump was subcutaneously implanted in the neck region for the purpose of assuring continuous infusion of the compound to be tested (C-9) or of a saline solution (control). A catheter guided the solution to the sclera at a constant rate of 0.2 mg/h. It is thus calculated that a concentration of about 0.003 mg/mL of the compound to be tested or saline solution is maintained in the cornea. Treatment was maintained for 14 days. The corneas were eliminated at the end of each experiment and at fixed intervals after each treatment and processed for histological examination.

bFGF = bFGF (Homo sapiens, UniProt P09038); assay: angiogenesis inhibition test in mice with aFGF substituted with bFGF; format: in vivo; details: data not shown
[8] = toxicity observations in the mouse angiogenesis test; format: in vivo; details: highest tested concentrations
Procedure: as §1
as §2, with “All the procedures were performed under sterile conditions.” left out

C6 glioma cells = assay: angiogenesis and tumor growth inhibition, C6 glioma cells implanted in rat brain; format: in vivo, rats
Procedure: A test similar to the one described in Example 3.1 was performed with rats, implanting the C6 glioma cells in the caudal area of the brain and the osmotic micropump in the back of the rats. A catheter led the treatment solution that contained the C-9 compound or the saline solution to the area of the glioma implant. Coronal sections of the brain of the rats thus treated were obtained and compared with coronal sections of the brain of untreated rats. The analysis was done by means of NMR spectroscopy imaging.

bFGF, sequence (P09038 143-288, species assumed): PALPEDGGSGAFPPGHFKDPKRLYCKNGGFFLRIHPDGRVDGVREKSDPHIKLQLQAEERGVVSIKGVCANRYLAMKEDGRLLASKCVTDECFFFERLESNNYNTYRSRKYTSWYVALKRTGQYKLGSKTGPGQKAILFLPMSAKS

O=S(=O)(O)c1cccc2ccccc12 [Compound C-1, 1-naphthalenesulfonic acid]
toxicity at concentrations at which aFGF mitogenic activity is inhibited (literature) ([1]; listed as 1-NMS): clear toxicity; also recorded: toxic
toxicity for quiescent fibroblasts [2]: certain toxic effect
aFGF-induced mitogenic activity inhibition (literature) (aFGF [3]; listed as 1-NMS): better aFGF mitogenic activity inhibitors than NTS; also recorded: aFGF-induced mitogenic activity inhibitors; also recorded: more potent inhibitor than 1,3,6-NTS and 1,5-NDS
aFGF-induced mitogenic activity inhibition (in words) (aFGF [4]; Balb/c 3T3 fibroblasts): aFGF-induced mitogenic activity inhibitors

O=S(=O)(O)c1cccc2c(S(=O)(=O)O)cccc12 [1,5-NDS, 1,5-naphthalenedisulfonic acid, reference compound]
toxicity at concentrations at which aFGF mitogenic activity is inhibited (literature) [1]: clear toxicity; also recorded: toxic
aFGF-induced mitogenic activity inhibition (literature) (aFGF [3]): better aFGF mitogenic activity inhibitors than NTS; also recorded: aFGF-induced mitogenic activity inhibitors

O=C(Nc1ccc(S(=O)(=O)[O-])c2ccccc12)c1ccccc1.[Na+] [Compound C-5, sodium 4-benzoylamino-1-naphthalenesulfonate]
toxicity for quiescent fibroblasts [2]: not toxic
aFGF-induced mitogenic activity inhibition (in words) (aFGF [4]; Balb/c 3T3 fibroblasts): low aFGF-induced mitogenesis inhibitory activity

O=S(=O)(O)c1ccc2c(S(=O)(=O)O)cc(S(=O)(=O)O)cc2c1 [1,3,6-NTS, 1,3,6-naphthalenetrisulfonic acid]
concentration required to reach substantial neovascularization inhibition (aFGF [5]): about 200 mg/kg
aFGF-induced mitogenic activity inhibition (literature) (aFGF [3]): aFGF-induced mitogenic activity inhibitors
aFGF-induced angiogenesis and glioma proliferation inhibition (literature) (aFGF [6]): positive results

Nc1cccc2cc(S(=O)(=O)[O-])ccc12.[Na+] [Compound C-9, sodium 5-amino-2-naphthalenesulfonate]
mitogenesis inductor / tumorigenic effect on quiescent fibroblasts in the absence of aFGF ([2]; absence of aFGF): does not occur
toxicity for quiescent fibroblasts [2]: innocuous
toxicity for quiescent fibroblasts ([2]; listed as sodium 5-amino-2-naphthalenesulfonate): not toxic
neovascularization inhibition (aFGF [7]; 0.008 mg/kg intraperitoneal, 7 days after implants): already assessable
neovascularization inhibition (aFGF [7]; 0.08 mg/kg intraperitoneal, 7 days after implants): already assessable
cellular infiltration in aFGF-soaked sponge implants (aFGF [7]; 8 mg/kg intraperitoneal, FIG. 2): disappears
neovascularization inhibition (aFGF [7]; doses exceeding 0.8 mg/kg intraperitoneal): virtually complete
aFGF-induced angiogenic activity inhibition (in words) (aFGF [7]; mouse, in vivo): aFGF-induced angiogenic activity inhibitors
neovascularization inhibition compared with suramines and 1,3,6-NTS (aFGF [7]; mouse, in vivo): considerably more effective neovascularization inhibitor
aFGF-induced mitogenic activity inhibition (in words) (aFGF [4]; Balb/c 3T3 fibroblasts): potent aFGF-induced mitogenic activity inhibitors
aFGF-induced mitogenic inhibitory activity compared between compounds (stereochemical guidelines) (aFGF [4]; C-9 and C-17 vs. C-14 and C-18, C-10, C-11, C-13 vs. C-9, 2-NMS vs 1-NMS series): better aFGF-induced mitogenic activity inhibitors
IC50 rank among the tested compounds (aFGF [4]; aFGF-induced mitogenesis): second best IC50 value
IC50 (aFGF [4]; aFGF-induced mitogenesis, Balb/c 3T3 fibroblasts, read-out: inhibitory activity IC50): 265 µM
apoptosis index (glioma C6 cells; continuous infusion 0.2 mg/h, 14 days): very positive
corneal neovascularization area (glioma C6 cells; in comparison with the untreated animals): very reduced
apoptotic endothelial nuclei (microscopic observation) (glioma C6 cells; treated animals): presence of apoptotic endothelial nuclei
broken blood vessels (microscopic observation) (glioma C6 cells; treated animals): presence of broken blood vessels
number of apoptotic bodies (microscopic observation) (glioma C6 cells; treated animals): higher number
number of glioma C6 cells (microscopic observation) (glioma C6 cells; treated animals): lower number
neovascularization inhibition with bFGF instead of aFGF (bFGF): Equivalent results
toxic death or apparent alterations in the animals [8]: did not cause any toxic death or apparent alterations
weight changes [8]: nor did it cause weight changes
tumor mass (C6 glioma cells; NMR imaging of coronal brain sections vs untreated rats): significantly decreased
intratumor vascularization inhibition (factor) (C6 glioma cells; rat, in vivo): six
